For experiment [1], the target named is T1, DNA topoisomerase 1 (Homo sapiens) (UniProt P11387).
T1 sequence (whole entry): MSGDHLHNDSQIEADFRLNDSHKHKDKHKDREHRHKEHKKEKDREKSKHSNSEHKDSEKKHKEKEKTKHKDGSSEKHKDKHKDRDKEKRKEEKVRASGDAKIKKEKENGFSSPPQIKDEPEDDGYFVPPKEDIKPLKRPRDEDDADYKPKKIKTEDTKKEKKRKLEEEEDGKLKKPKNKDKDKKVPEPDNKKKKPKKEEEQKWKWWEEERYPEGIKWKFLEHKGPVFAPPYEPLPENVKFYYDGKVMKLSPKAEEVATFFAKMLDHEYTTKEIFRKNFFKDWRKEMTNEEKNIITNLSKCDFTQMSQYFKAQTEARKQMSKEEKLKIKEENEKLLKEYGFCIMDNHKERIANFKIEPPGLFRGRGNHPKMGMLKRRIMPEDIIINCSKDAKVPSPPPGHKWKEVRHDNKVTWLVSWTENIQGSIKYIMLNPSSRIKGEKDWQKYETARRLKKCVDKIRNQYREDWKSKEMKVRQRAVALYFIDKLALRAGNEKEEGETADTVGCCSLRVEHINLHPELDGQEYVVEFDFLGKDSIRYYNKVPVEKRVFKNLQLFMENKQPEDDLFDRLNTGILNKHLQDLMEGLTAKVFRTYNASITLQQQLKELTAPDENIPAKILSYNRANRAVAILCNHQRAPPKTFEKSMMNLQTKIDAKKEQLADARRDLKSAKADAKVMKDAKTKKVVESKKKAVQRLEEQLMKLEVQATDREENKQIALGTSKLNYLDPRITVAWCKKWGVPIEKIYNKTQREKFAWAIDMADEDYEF
In words: Concentration tested for Top1-mediated DNA cleavage (concentration taken upto 100 uM);+: weak activity. The experiment is classed as functional.

The next experiment has as its system Cell line. Briefly: Mean graph midpoint for growth inhibition of all human cancer cell lines. It counts as functional.
In experiment [2] the target is T1, DNA topoisomerase 1 (Homo sapiens). In words: Concentration tested for Top1-mediated DNA cleavage;+: weak activity. The experiment is classed as functional.
Experiment [3] is described as follows: Growth inhibition against Colon HCT116 cell line. It counts as functional, Homo sapiens, HCT-116.
Experiment [4] is described as follows: (§1) Growth inhibition against Breast MDA-MB-435 cell line. The experiment is classed as functional. As to conditions: Homo sapiens.
Experiment [5] is described as follows: (§2) Growth inhibition against Melanoma UACC-62 cell line. The experiment is classed as functional, Homo sapiens.
Experiment [6] is described as follows: Growth inhibition against CNS SF-539 cell line. As to conditions: Homo sapiens. The experiment is classed as functional.
A short description of experiment [7]: Growth inhibition against Renal SN12C cell line. The experiment is classed as functional. As to conditions: Homo sapiens.
Another experiment deals with HOP-62. Briefly: Growth inhibition against Lung HOP-62 cell line. As to conditions: Homo sapiens. It counts as functional.
Experiment [8] concerns the target T1, DNA topoisomerase 1 (Homo sapiens). Briefly: Concentration tested for Top1-mediated DNA cleavage (concentration taken upto 100 uM); ++: similar activity as the parent compound 3a. It counts as functional.
Another experiment has as its system SF-539. In words: Growth inhibition against CNSSF-539 cell line. As to conditions: Homo sapiens. The experiment is classed as functional.
The subject of experiment [9] is DU-145. Briefly: Growth inhibition against ProstateDU-145 cell line. It counts as functional. As to conditions: Homo sapiens.
The nature of experiment [10]: Growth inhibition against ColonHCT-116 cell line. As to conditions: Homo sapiens. It counts as functional.
Experiment [11] concerns OVCAR-3. Briefly: Growth inhibition against OvarianOVCAR-3 cell line. The experiment is classed as functional. As to conditions: Homo sapiens.
A further experiment has as its system UACC-62. Described as §2. The experiment is classed as functional. As to conditions: Homo sapiens.
For a further experiment, the system named is MDA-MB-435. Described as §1. As to conditions: Homo sapiens. The experiment is classed as functional.
Experiment [12] concerns the target T1, DNA topoisomerase 1 (Homo sapiens). In words: Concentration tested for Top1-mediated DNA cleavage (concentration taken upto 100 uM);0: no activity. The experiment is classed as functional.
For experiment [13] the target is unchanged. In words: Concentration tested for Top1-mediated DNA cleavage (concentration taken upto 100 uM). The experiment is classed as functional.
Experiment [14] concerns P388. In words: Ratio of the growth inhibition for P388 resistant cells to that of parental cells; Value expressed as RF (resistance factor). The experiment is classed as functional, Homo sapiens.
In experiment [15] the test system is HCT-116. Briefly: Ratio of the growth inhibition for HCT116 resistant cells to that of parental cells; Value expressed as RF (resistance factor). The experiment is classed as functional, Homo sapiens.
Experiment [16] has as its system HCT-116. In words: Ratio of the growth inhibition for HCT116 Top1 resistant cells to that of parental cells; Value expressed as RF (resistance factor). It counts as functional, Homo sapiens.
A short description of experiment [17]: Ratio of the growth inhibition for P388/CPT 45 resistant cells to that of parental cells; Value expressed as RF (resistance factor). It counts as functional, Homo sapiens.
Experiment [18] deals with OVCAR-3. In words: Growth inhibition against Ovarian OVCAR-3 cell line. The experiment is classed as functional. As to conditions: Homo sapiens.
For experiment [19], the system named is DU-145. In words: Growth inhibition against Prostate DU-145 cell line. As to conditions: Homo sapiens. The experiment is classed as functional.
Experiment [20] relates to P388. Briefly: Growth inhibition against P388 cell line. The experiment is classed as functional. As to conditions: Mus musculus.
Experiment [21] has as its system HCT-116. Briefly: Growth inhibition against HCT116 cell line. The experiment is classed as functional. As to conditions: Homo sapiens.
The nature of experiment [22]: Growth inhibition against P388 cell line in. It counts as functional.
In experiment [23] the test system is HCT-116. Briefly: Growth inhibition against HCT116 V cell line. The experiment is classed as functional. As to conditions: Homo sapiens.
For experiment [24], the system named is HCT-116. Briefly: Growth inhibition against HCT116 DNA topoisomerase 1 in (Top1-deficient and parental tumor cells). It counts as functional. As to conditions: Homo sapiens.
The test system of experiment [25] is HCT-116. Briefly: Ratio of the growth inhibition for Top1 siRNA cells (HCT116-Top1) to that for the vector-control cells (HCT116-V); Value expressed as RF (resistance factor). It counts as functional, Homo sapiens.
In experiment [26] the target is T1, DNA topoisomerase 1 (Homo sapiens). Briefly: Concentration tested for Top1-mediated DNA cleavage (concentration taken upto 100 uM); +++: Good activity. The experiment is classed as functional.

Structures are written as SMILES. A value given as a limit tells only on which side of the number the result lay.

The molecule `C=CCn1c2c(c3cc(OC)c(OC)cc3c1=O)C(=O)c1cc3c(cc1-2)OCO3` registered a Concentration in experiment [1] of 100 µM. The MGM in the experiment with Cell line turned out to be 4.16 µM.

In experiment [2], `O=C1c2cc3c(cc2[C@@H]2[C@H]1c1ccc([N+](=O)[O-])cc1C(=O)N2CCCCl)OCO3` registered a Concentration of 100 µM. In the experiment on Cell line, this molecule registered an MGM of 0.018 µM.

As usually defined, the GI50 is the concentration giving 50% growth inhibition. On to `COc1cc2c(cc1OC)[C@@]1(C)C(=O)c3cc4c(cc3[C@H]1N(C)C2=O)OCO4`, for which the MGM with Cell line turned out to be 51.3 µM. The GI50 was 24 µM in experiment [3]; 43.5 µM in experiment [3] (Homo sapiens, HCT-116); > 100 µM in experiment [4]; 58.1 µM in experiment [5]; 82.4 µM in [5] (Homo sapiens, UACC-62); 96.2 µM in [6]. In addition, the GI50 in experiment [7] is 26 µM; with HOP-62, > 100 µM. The Concentration in [8] is 100 µM.

For `COc1cc2c3c(n(C)c(=O)c2cc1OC)-c1cc2c(cc1C3=O)OCO2`, the GI50 with SF-539 amounted to 41 µM; with DU-145 [9], 37 µM; in experiment [10] it was 35 µM; in the experiment with OVCAR-3 [11] it was 73 µM; in the experiment on UACC-62, 4.2 µM; in the experiment with MDA-MB-435, 96 µM. Moreover, the GI50 in experiment [7] is 68 µM; in the experiment on HOP-62, 1.3 µM. For the same molecule, the MGM in the experiment on Cell line was found to be 20 µM. In addition, the Concentration in experiment [8] came to 100 µM.

With `C=CCN1C(=O)c2cc(OC)c(OC)cc2[C@H]2C(=O)c3cc4c(cc3[C@H]21)OCO4`, the Concentration in experiment [12] worked out at 100 µM. This molecule also had an MGM in the experiment on Cell line of 0.98 µM.

The molecule `COc1cc2c(cc1OC)[C@H]1C(=O)c3cc4c(cc3[C@H]1N(C)C2=O)OCO4` came in with a Concentration in [13] of 100 µM. Moreover, the MGM with Cell line amounted to 5 µM. Further, the RF was determined as 1 in the experiment on P388 [14]; 1 with HCT-116 [15]; 35 in the experiment with HCT-116 [16]; 128 in experiment [17]; 7 with HCT-116 [25]. In addition, the GI50 came to 2 µM in experiment [3] (Homo sapiens, HCT-116); 6.7 µM in the experiment on OVCAR-3 [18]; 4.1 µM with DU-145 [19]; 17 µM in experiment [4]; 0.42 µM in experiment [5] (Homo sapiens, UACC-62); 0.00988 µM with P388 [20]. The GI50 in the experiment on HCT-116 [21] was 0.0599 µM; in experiment [22], 1.26 µM; in the experiment on HCT-116 [23], 0.418 µM; in experiment [6], 3.1 µM; in experiment [7] it was 2.1 µM; in the experiment on HOP-62, 9.4 µM. The GI50 in the experiment with HCT-116 [24] turned out to be 0.012 µM.

The molecule `O=C1c2cc3c(cc2-c2c1c1ccc([N+](=O)[O-])cc1c(=O)n2CCCCl)OCO3` yielded a Concentration in experiment [26] of 100 µM. The MGM with Cell line amounted to 0.83 µM.

These data come from ChEMBL document CHEMBL1145275, “Dihydroindenoisoquinolines function as prodrugs of indenoisoquinolines” (2005).
